Among the data in US11357817B2, “Immunoproteasome inhibitor” (The Regents of the University of California, priority 2017, dated 2022) are IC50 values, retold here.

This assay relates to P. falciparum Stage V gametocytes. As to the kind of experiment: Compound sensitivity testing of Stage V gametocytes. The format is cell-based. Particulars: Plasmodium falciparum, read-out: IC50 against stage V gametocytes. Here is the method: Gametocytes were induced in NF54 or derived clones as previously described (33). Asexual blood stage parasites were synchronized at ring stage using 5% sorbitol for three consecutive life cycles. Once the culture reached a parasitemia of 8-10% ring stages, half of the media was exchanged to stress the parasites. Twenty-four hours later, the culture media was exchanged with fresh media and the culture was shaken overnight. The following day, the culture was treated with 50 mM N-acetyl-glucosamine (NAG) (in complete media), and new media containing NAG was added every day for 10 days to clear remaining asexual blood stage parasites and enrich for gametocytes. After 10 days, complete media without NAG was provided each day for the last two days of gametocyte development in order to obtain ˜1% gametocytemia with >80% Stage V specificity and no visible asexual blood stage parasites (assessed via Giemsa-stained thin smears). Drug Sensitivity of Stage V gametocytes were then determined using a published protocol using mitotracker red (34). Each compound was tested in technical triplicate in a ten-point concentration curve prepared by three-fold dilution starting at 12.5 μM. At least three independent experiments were carried out for EC50 determination and puromycin was used as a positive control. […]

pIC50: −log10 of the molar value.

As to `CCCCCC(=O)N[C@@H](C(=O)N[C@@H](CCCC)C(=O)N[C@@H](CC(C)C)C(=O)[C@@]1(C)CO1)C(C)C` [Analog 18, (S)-2-((R)-2-hexanamido-3-methylbutanamido)-N—((S)-4-methyl-1-((R)-2-methyloxiran-2-yl)-1-oxopentan-2-yl)hexanamide], the pIC50 was 6.89.
